Results as given in patent EP4548971A1, “1,4-BENZOTHIAZEPINES AND RELATED COMPOUNDS WITH CYCLOPROPANOL GROUPS AS MULTI-TARGETED DRUGS” (Georg-August-Universität Göttingen Stiftung Öffentlichen …, priority 2023, dated 2025).
“Also recorded” adds a separate entry of the source.

Key:
SERCA2a = target: T1, SERCA2a (Mus musculus, UniProt O55143); experiment: Caffeine-induced Ca2+ release assay on HL-1 cells; type: cell-based; parameters: key to SERCA2a HL-1 effect class: +++: a strong effect, comparable to or greater than that of a known compounds at a given concentration (25 µM in RyR2 R-CEPIA1er assay, 10 µM in caffeine assay and on microsomal membrane vesicles); ++: moderate effect; +: observable effect; -: no effect; conditions: for SERCA2a HL-1 effect class: 10 µM in caffeine assay; for effect in caffeine-induced Ca^2+ release assay, in words: HL-1 cells incubated 2 h with compound; for effect in caffeine-induced Ca^2+ release assay, in words / EC50: 10 mM caffeine; for EC50: caffeine-induced Ca2+ release, range after the semicolon is not explained
T1 construct: host or cells: HL-1 cardiac cells
T1 sequence (O55143 1-998 isoform O55143-2): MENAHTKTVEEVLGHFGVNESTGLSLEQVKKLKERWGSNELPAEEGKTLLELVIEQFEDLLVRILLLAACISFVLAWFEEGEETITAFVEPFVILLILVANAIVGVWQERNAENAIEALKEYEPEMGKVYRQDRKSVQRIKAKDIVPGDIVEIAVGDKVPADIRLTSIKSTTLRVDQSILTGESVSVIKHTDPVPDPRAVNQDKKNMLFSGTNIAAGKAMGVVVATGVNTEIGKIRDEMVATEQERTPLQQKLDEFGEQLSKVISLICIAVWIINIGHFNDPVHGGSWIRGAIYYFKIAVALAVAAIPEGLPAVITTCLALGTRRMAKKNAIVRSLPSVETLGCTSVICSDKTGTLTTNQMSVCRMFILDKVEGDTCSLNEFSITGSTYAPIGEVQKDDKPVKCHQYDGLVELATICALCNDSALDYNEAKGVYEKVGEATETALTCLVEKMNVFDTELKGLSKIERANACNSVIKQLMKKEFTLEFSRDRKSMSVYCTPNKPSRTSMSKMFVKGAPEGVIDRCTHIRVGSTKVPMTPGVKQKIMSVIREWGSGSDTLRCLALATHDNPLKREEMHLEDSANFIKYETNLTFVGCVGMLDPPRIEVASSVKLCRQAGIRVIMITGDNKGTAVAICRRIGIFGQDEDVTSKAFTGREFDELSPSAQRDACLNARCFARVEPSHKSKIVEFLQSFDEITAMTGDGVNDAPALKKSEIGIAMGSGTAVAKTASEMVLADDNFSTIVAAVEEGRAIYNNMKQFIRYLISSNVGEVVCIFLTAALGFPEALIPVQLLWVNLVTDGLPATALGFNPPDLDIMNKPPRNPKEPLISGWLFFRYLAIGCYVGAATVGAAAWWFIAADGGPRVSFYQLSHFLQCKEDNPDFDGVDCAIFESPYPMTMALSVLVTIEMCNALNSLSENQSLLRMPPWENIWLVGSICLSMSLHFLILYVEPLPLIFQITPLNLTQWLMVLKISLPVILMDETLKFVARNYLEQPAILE
Description: HL-1 cardiac cells (SCC065, Merck KGaA, Darmstadt, Germany) were cultivated in Claycomb's Medium (51800C, Merck KGaA, Darmstadt, Germany), supplemented with Glutamax, 10% fetal bovine serum, 0.9% Penicillin/Streptomycin and 0.1 mM Noradrenaline (Merck KGaA, Darmstadt, Germany) on fibronectin/gelatin (Merck KGaA, Darmstadt, Germany) coated culture bottles or plates two days before plating.
HL-1 cardiac cells (50000 per well) were cultivated for 24 h in black-walled, clear-bottom 96-well micro-plates (Corning, Amsterdam, The Netherlands) covered with fibronectin/gelatin (Merck KGaA, Darmstadt, Germany) in a humidified incubator at 37 °C and 5% CO2.
Changes in Ca^2+ concentration were measured on a multiwell plate reader TECAN Spark 20M using FLIPR 6 Calcium Assay Kit from Molecular Devices (Molecular Devices LLC, München, Germany) at 37 °C. The 1000 × stock solutions of the test compounds were prepared in DMSO. 100 µl solution of test compound in Tyrode's solution containing FLIPR Calcium 6 dye was incubated for 2 hours at 37°C and 5% COz in a humidified incubator. The time courses were recorded in each well. Fluorescence was evoked at 485 nm excitation wavelength and read out in a bottom-read mode at 525 nm. Data were recorded every 2 s, exposure - 20 flashes, excitation bandwidth - 10 nm, emission bandwidth - 15 nm. To initiate Ca^2+ influx, 25 µl of 50 mM caffeine solution in Tyrode's solution containing 2 mM CaCl2 was injected in each well (speed 100 µl/s) at 10 s time point, resulting in 10 mM final concentration in the well. The differences between the caffeine induced peak minus basal fluorescence, ΔFCaff, were taken for the analysis. The Tyrode's solution + 0.1 v/v% DMSO was used as a control. The dose response curves were calculated using the software package GraphPad Prism version 8.3.1. All data are presented as mean ± S.D. from 8 independent experiments. Y=Bottom + (Top-Bottom)/(1+10^((LogEC50-X)*HillSlope)) was used where HillSlope describes the steepness of the curve, Top and Bottom are plateaus in the units of the Y axis.
The SERCA2a activity of the compounds was confirmed in two orthogonal biochemical assays: caffeine-induced Ca^2+ release assay and nicotinamide adenine dinucleotide (NADH) assay on microsomal membrane vesicles from mouse heart ventricles (mouse SER) and HEK-293T cells (HEK-293 ER). The effect of caffeine-induced Ca^2+ release in HL-1 cells, immortalized mouse cardiomyocytes, treated with the cytosolic Ca^2+ indicator FLIPR Calcium 6 (Molecular Devices) was investigated.
When caffeine binds to the RyR channel, it interacts with specific amino acids of the protein, and this interaction causes conformational changes in the protein's structure [A. des Georges, O. B. Clarke, R. Zalk, Q. Yuan, K. J. Condon, R. A. Grassucci, W. A. Hendrickson, A. R. Marks, J. Frank, Structural Basis for Gating and Activation of RyR1. Cell 2016, 167, 145 - 157.e17]. This opens the RyR2 channel pore, enabling the mass release of calcium ions from the SER Ca^2+ store.

[1] = Membrane permeability, PermeaPad plate (cell-free transport model); type: in vitro ADME; conditions: for Pe: permeability rate, room temperature, 24 hours
Description: Membrane permeability was assessed using PermeaPad® Plate according to the manufacturing procedure (innoME GmbH, Espelkamp, Germany). Briefly, 200 µl water was added into acceptor plate. 200 µl of 100 - 500 µM test compound in water was added directly to the well membranes of the donor plate. The donor plate contains a biomimetic membrane for simulating passive mass transfer through different barriers in the body. Then the donor plate was placed into the acceptor plate wells and incubated at room temperature for 24 hours in dark. To determine peak absorbance of test compounds, absorbance spectra of acceptor solutions and initial solutions for each test compound were read out. The Permeability Rate (Pe) was calculated using the formula: Pe = C × −ln(1−(ODA)/(ODE)) cm/s, [formula]
where ODA is the absorbance of acceptor solution, ODE is the absorbance of the standard solution; if the compound is able to permeabilize the membrane and fully reach equilibrium, 250 µM will be the final concentration of solution in the donor and acceptor wells. The coefficient C was calculated using the formula: C = (VD × VA)/((VD+VA) × Area × time), [formula] where VA - acceptor volume (cm^3), VD - donor volume (cm^3), membrane area 0.24 cm^2, time is 86,400 s.
The membrane permeability of the derivatives was determined using cell-free transport models (PermeaPad®, innoME GmbH), and permeability rates (Pe), which are a measure of how fast a compound can cross a membrane, were established (Table 1).

| Compound | SERCA2a HL-1 effect class (SERCA2a) | effect in caffeine-induced Ca^2+ release assay, in words (SERCA2a) | Pe rating in words (low / medium / high; poor) [1] | Pe [1] | EC50 (SERCA2a) [µM] |
| --- | --- | --- | --- | --- | --- |
| COc1ccc2c(c1)CN(CCCCC1(O)CC1)CCS2 [Compound 13d, 1-(4-(7-methoxy-2,3-dihydrobenzo[1,4-f]thiazepin-4(5H)-yl)butyl)cyclopropan-1-ol] | + | least efficacious; also recorded: no saturation effect at concentrations up to 50 µM; also recorded: slight | high | 3.6 10^-6 cm/s |  |
| COc1ccc(SCCCN(CCCCC2(O)CC2)CCCCC2(O)CC2)cc1 [Compound 14c, 1,1'-(((3-((4-Methoxyphenyl)thio)propyl)azanediyl)bis(butane-4,1-diyl))bis(cyclopropan-1-ol)] | +++ | most efficacious | high | 3.6 10^-6 cm/s | 10.9 |
| COc1ccc2c(c1)CN(Cc1ccc(C(=O)O)cc1)CCS2 [ARM210, reference compound] | + | clear concentration-dependent effect | high | 6.8 10^-6 cm/s |  |
| COc1ccc(OCCCNCCCCC2(O)CC2)cc1 [Compound 13b, 1-(4-((3-(4-methoxyphenoxy)propyl)amino)butyl)cyclopropan-1-ol] | ++ |  | high | 4.0 10^-6 cm/s | 8.6 |
| COc1ccc2c(c1)CN(C(=O)C(=O)O)CCS2 [Compound S36, reference compound] | - | no concentration dependent effect | poor permeability and low | 1.0 10^-6 cm/s |  |
| COc1ccc2c(c1)CN(CCCCN(CCCCC1(O)CC1)CCCCC1(O)CC1)CCS2 [Compound 14a, 1,1'-(((4-(7-Methoxy-2,3-dihydrobenzo[1,4-f]thiazepin-4(5H)-yl)butyl)azanediyl)bis(butane-4,1-diyl))bis(cyclopropan-1-ol)] | ++ |  | poor permeability and low | 0.6 10^-6 cm/s | 9.2 |
| COc1ccc2c(c1)CN(CCCCNCCCCC1(O)CC1)CCS2 [Compound 13a, 1-(4-((4-(7-Methoxy-2,3-dihydrobenzo[1,4-f]-thiazepin-4(5H)-yl)butyl)amino)butyl)cyclopropan-1-ol] | + | most potent | poor permeability and low | 0.8 10^-6 cm/s | 2.2 |
| COc1ccc(SCCCNCCCCC2(O)CC2)cc1 [Compound 13c, 1-(4-((3-((4-Methoxyphenyl)thio)propyl)amino)butyl)cyclopropan-1-ol] | ++ |  | high | 6.9 10^-6 cm/s | 7.6 |
